In patent publication US20080214807A1, “Substituted Spiro Compounds and their Use for Producing Drugs” (Gruenenthal GmbH, priority 2005, published 2008):

Experiments:
[1] = target: T1, rat-species vanilloid receptor 1 (VR1/TRPV1) (Rattus norvegicus, UniProt O35433); assay: Functional testing on vanilloid receptor 1 (VR1/TRPV1), FLIPR Ca2+ inflow assay in rat dorsal root ganglia cells; type: cell-based; conditions: test compound 10 μM; for inhibition at 10 µM / VR1 (rat) (% inhibition compared to 10 μM CP): 5 min incubation, then 100 nM capsaicin, relative to maximum achievable inhibition with 10 μM capsaicin; for inhibition at 10 µM: read-out: VR1 (rat) (% inhibition compared to 10 μM CP); for activation at 10 µM / VR1 (rat) (% stimulation compared to 10 μM CP): Ca2+ inflow relative to signal of 10 μM capsaicin (CP); for activation at 10 µM: read-out: VR1 (rat) (% stimulation compared to 10 μM CP)
T1 construct: endogenous in cells; host or cells: primary cultured rat dorsal root ganglion cells
T1 sequence (O35433 whole entry): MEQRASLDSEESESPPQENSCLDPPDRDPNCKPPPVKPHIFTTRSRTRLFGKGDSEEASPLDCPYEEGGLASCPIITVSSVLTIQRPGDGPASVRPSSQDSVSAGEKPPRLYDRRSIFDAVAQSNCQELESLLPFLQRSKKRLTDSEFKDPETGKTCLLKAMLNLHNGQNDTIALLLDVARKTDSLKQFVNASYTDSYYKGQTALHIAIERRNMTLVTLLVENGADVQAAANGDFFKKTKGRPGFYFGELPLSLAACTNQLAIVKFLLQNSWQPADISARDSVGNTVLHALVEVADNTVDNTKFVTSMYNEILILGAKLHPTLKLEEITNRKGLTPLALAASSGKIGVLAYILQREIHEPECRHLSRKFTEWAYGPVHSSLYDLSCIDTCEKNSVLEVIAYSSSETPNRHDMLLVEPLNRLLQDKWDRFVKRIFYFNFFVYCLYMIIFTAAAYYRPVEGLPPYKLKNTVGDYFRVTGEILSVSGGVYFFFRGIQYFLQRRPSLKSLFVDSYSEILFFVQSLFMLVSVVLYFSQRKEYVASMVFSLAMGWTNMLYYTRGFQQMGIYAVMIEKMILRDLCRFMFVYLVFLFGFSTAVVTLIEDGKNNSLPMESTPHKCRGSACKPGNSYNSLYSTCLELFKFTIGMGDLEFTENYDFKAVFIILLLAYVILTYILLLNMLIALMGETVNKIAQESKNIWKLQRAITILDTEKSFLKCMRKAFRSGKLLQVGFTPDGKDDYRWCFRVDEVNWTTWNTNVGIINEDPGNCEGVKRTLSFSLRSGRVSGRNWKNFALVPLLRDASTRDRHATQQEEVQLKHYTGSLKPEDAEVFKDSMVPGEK
From the text: I. Functional Testing Carried out on the Vanilloid Receptor 1 (VRI/TRPV1 Receptor)
(§1) The agonistic or antagonistic effect of the substances to be tested can be determined on the rat-species vanilloid receptor 1 (VR1/TRPV1) using the following assay. According to this assay, the Ca^2+ inflow is quantified through the receptor channel using a Ca^2+-sensitive dye (type Fluo-4, Molecular Probes Europe BV, Leiden, Netherlands) in a fluorescent imaging plate reader (FLIPR, Molecular Devices, Sunnyvale, USA).
Complete medium: 50 mL HAMS F12 nutrient mixture (Gibco Invitrogen GmbH, Karlsruhe, Germany) with
10% by volume of FCS (foetal calf serum, Gibco Invitrogen GmbH, Karlsruhe, Germany, […]);
2 mM L-glutamine (Sigma, Munich, Germany);
1% by weight of AA solution (antibiotic/antimyotic solution, PAA, Pasching, Austria) and 25 ng/ml NGF medium (2.5 S, Gibco Invitrogen GmbH, Karlsruhe, Germany)
Cell culture plate: Poly-D-lysine-coated, black 96 well plates having a clear base (96 well black/clear plate, BD Biosciences, Heidelberg, Germany) were additionally coated with laminin (Gibco Invitrogen GmbH, Karlsruhe, Germany), the laminin being diluted with PBS (Ca—Mg-free PBS, Gibco Invitrogen GmbH, Karlsruhe, Germany) to a concentration of 100 μg/mL. Aliquots having a laminin concentration of 100 μg/mL were removed and stored at −20° C. The aliquots were diluted with PBS in a ratio of 1:10 to 10 μg/mL laminin and in each case 50 μL of the solution were pipetted into a recess in the cell culture plate. The cell culture plates were incubated for at least two hours at 37° C., the excess solution was removed by suction-filtration and the recesses were each washed twice with PBS. The coated cell culture plates were stored with excess PBS which was not removed until just before the feeding of the cells.
Preparation of the Cells:
The vertebral column was removed from decapitated rats and placed immediately into cold HBSS buffer (Hank's buffered saline solution, Gibco Invitrogen GmbH, Karlsruhe, Germany), i.e. buffer located in an ice bath, mixed with 1% by volume (percent by volume) of an AA solution (antibiotic/antimyotic solution, PAA, Pasching, Austria). The vertebral column was cut longitudinally and removed together with fasciae from the vertebral canal. Subsequently, the dorsal root ganglia (DRG) were removed and again stored in cold HBSS buffer mixed with 1% by volume of an AA solution. The DRG, from which all blood remnants and spinal nerves had been removed, were transferred in each case to 500 μL of cold type 2 collagenase (PAA, Pasching, Austria) and incubated for 35 minutes at 37° C. After the addition of 2.5% by volume of trypsin (PAA, Pasching, Austria), incubation was continued for 10 minutes at 37° C. After complete incubation, the enzyme solution was carefully pipetted off and 500 μL of complete medium were added to each of the remaining DRG. The DRG were in each case suspended several times, drawn through cannulae No. 1, No. 12 and No. 16 using a syringe and transferred to a 50 mL Falcon tube which was filled up to 15 mL with complete medium. The contents of each Falcon tube was in each case filtered through a 70 μm Falcon filter element and centrifuged for 10 minutes at 1,200 rpm and room temperature. The resulting pellet was in each case taken up in 250 μL of complete medium and the number of cells determined.
The number of cells in the suspension was set to 3×10^5 per mL and 150 μL of this suspension were in each case introduced into a recess in the cell culture plates coated as described hereinbefore. In the incubator the plates were left for two to three days at 37° C., 5% by volume of CO2 and 95% relative humidity. […]

[2] = target: T2, VR1 (human) (Homo sapiens, UniProt Q8NER1); assay: Functional testing on vanilloid receptor VR1, FLIPR Ca2+ inflow assay (CHO K1 cells stably transfected with the VR1 gene); type: cell-based; conditions: test compound 10 μM; for inhibition at 10 µM / activation at 10 µM: CHO-K1; for inhibition at 10 µM / VR1 (human) (% inhibition compared to 10 μM CP): 5 min incubation, then 100 nM capsaicin, relative to maximum achievable inhibition with 10 μM capsaicin; for inhibition at 10 µM: read-out: VR1 (human) (% inhibition compared to 10 μM CP); for activation at 10 µM / VR1 (human) (% stimulation compared to 10 μM CP): Ca2+ inflow relative to signal of 10 μM capsaicin (CP); for activation at 10 µM: read-out: VR1 (human) (% stimulation compared to 10 μM CP)
T2 construct: expressed in transfected cells; host or cells: CHO K1 cells (ECACC)
T2 sequence (Q8NER1 whole entry): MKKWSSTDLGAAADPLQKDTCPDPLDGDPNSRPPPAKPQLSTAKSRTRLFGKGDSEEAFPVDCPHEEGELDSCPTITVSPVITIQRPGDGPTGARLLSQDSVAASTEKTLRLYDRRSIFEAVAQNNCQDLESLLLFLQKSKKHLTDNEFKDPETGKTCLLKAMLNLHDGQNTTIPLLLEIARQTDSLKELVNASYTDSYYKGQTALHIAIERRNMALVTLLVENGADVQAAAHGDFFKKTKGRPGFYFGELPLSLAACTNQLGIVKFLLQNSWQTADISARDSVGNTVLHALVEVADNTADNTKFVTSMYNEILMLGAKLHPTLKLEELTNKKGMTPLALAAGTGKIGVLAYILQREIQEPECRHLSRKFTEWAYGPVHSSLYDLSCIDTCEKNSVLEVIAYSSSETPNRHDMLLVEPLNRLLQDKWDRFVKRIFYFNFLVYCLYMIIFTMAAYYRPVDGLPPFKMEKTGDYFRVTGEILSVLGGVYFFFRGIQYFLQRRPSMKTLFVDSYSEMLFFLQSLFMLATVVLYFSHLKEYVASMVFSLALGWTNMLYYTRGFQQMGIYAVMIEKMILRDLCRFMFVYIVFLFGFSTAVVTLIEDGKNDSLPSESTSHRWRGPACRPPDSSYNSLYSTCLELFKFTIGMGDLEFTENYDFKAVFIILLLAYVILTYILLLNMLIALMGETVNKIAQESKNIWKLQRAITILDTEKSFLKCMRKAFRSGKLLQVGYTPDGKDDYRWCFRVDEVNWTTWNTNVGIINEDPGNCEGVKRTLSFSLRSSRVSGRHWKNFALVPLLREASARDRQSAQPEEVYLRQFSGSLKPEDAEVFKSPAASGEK
From the text: II. Functional Testing Carried out on the Vanilloid Receptor (VR1)
as §1, with “can also” for “can”, “the” for “the rat-species”, “(VR1)” for “1 (VR1/TRPV1)”, “the” for “the receptor”
Chinese hamster ovary cells (CHO K1 cells, European Collection of Cell Cultures (ECACC) United Kingdom) were stably transfected with the VR1 gene. For functional testing, these cells were plated out on poly-D-lysine-coated black 96 well plates having a clear base (BD Biosciences, Heidelberg, Germany) at a density of 25,000 cells/well. The cells were incubated overnight at 37° C. and 5% CO2 in a culture medium (Ham's F12 nutrient mixture, 10-% by volume of FCS (foetal calf serum), 18 μg/ml L-proline). The next day the cells were incubated with Fluo-4 (Fluo-4 2 μM, 0.01% by volume of Pluronic F127, Molecular Probes in HBSS (Hank's buffered saline solution), Gibco Invitrogen GmbH, Karlsruhe, Germany) for 30 minutes at 37° C. Subsequently, the plates were washed 3 times with HBSS buffer and after further incubation for 15 minutes at room temperature used for Ca^2+ measurement in a FLI PR assay. The Ca^2+-dependent fluorescence was measured before and after the addition of the substances to be tested (λex wavelength=488 nm, λem=540 nm). Quantification was carried out by measuring the highest fluorescence intensity (FC, Fluorescence Counts) over time.
The FLIPR protocol consists of 2 substance additions. First the compounds to be tested (10 μM) were pipetted onto the cells and the Ca^2+ inflow was compared with the control (capsaicin 10 μM) (% activation based on the Ca^2+ signal after the addition of 10 μM capsaicin). After 5 minutes' incubation, 100 nM of capsaicin were administered and the Ca^2+ inflow was also determined.
Desensitising agonists and antagonists led to suppression of the Ca^2+ inflow. The % inhibition was calculated compared to the maximum achievable inhibition with 10 μM of capsaicin.

| inhibition at 10 µM [1] [%] | activation at 10 µM [1] [%] | inhibition at 10 µM [2] [%] | activation at 10 µM [2] [%] | VR1 (rat) (% inhibition compared to 10 μM CP) [1] [%] | VR1 (rat) (% stimulation compared to 10 μM CP) [1] [%] | VR1 (human) (% inhibition compared to 10 μM CP) [2] [%] | VR1 (human) (% stimulation compared to 10 μM CP) [2] [%] | SMILES |
| --- | --- | --- | --- | --- | --- | --- | --- | --- |
| 34.2 | 6.37 | 33.6 | 4.85 | – | – | – | – | O=C(Nc1ccccc1F)N1CCC2(CC1)CC(C(=O)N1CCN(c3ncccc3Cl)CC1)=NO2 [Example 1, 3-[4-(3-chloropyridin-2-yl)piperazine-1-carbonyl]-1-oxa-2,8-diazaspiro[4.5]dec-2-ene-8-carboxylic acid-(2-fluorophenyl)amide] |
| – | – | – | – | 45.63 | 0.23 | 26.23 | −0.48 | O=C(Nc1ccc(Cl)cn1)C1=NOC2(CCN(C(=O)Nc3ccccc3Cl)CC2)C1 [Example 9, 1-oxa-2,8-diazaspiro[4.5]dec-2-ene-3,8-dicarboxylic acid-8-[(2-chlorophenyl)amide]-3-[(5-chloropyridin-2-yl)amide]] |
| 41.3 | 11.4 | 37.3 | -0.15 | – | – | – | – | O=C(Nc1cccc(Br)c1)N1CCC2(CC1)CC(C(=O)N1CCN(c3ncccc3Cl)CC1)=NO2 [Example 11, 3-[4-(3-chloropyridin-2-yl)piperazine-1-carbonyl]-1-oxa-2,8-diazaspiro[4.5]dec-2-ene-8-carboxylic acid-(3-bromophenyl)amide] |
| – | – | – | – | 8.65 | 0.00 | 0.77 | 0.40 | COc1cccc(NC(=O)N2CCC3(CC2)CC(C(=O)NCc2ccc(OC)c(OC)c2)=NO3)c1 [Example 16, 1-oxa-2,8-diazaspiro[4.5]dec-2-ene-3,8-dicarboxylic acid-3-(3,4-dimethoxybenzylamide)-8-[(3-methoxyphenyl)amide]] |
| 46.9 | 19.8 | 53.7 | 19.5 | – | – | – | – | COc1cccc(NC(=O)N2CCC3(CC2)CC(C(=O)N2CCN(c4ncccc4Cl)CC2)=NO3)c1 [Example 17, 3-[4-(3-chloropyridin-2-yl)piperazine-1-carbonyl]-1-oxa-2,8-diazaspiro[4.5]dec-2-ene-8-carboxylic acid-(3-methoxyphenyl)amide] |
| – | – | – | – | 34.24 | 4.68 | 11.17 | 0.67 | COc1cccc(NC(=O)N2CCC3(CC2)CC(C(=O)Nc2ccc(Cl)cn2)=NO3)c1 [Example 18, 1-oxa-2,8-diazaspiro[4.5]dec-2-ene-3,8-dicarboxylic acid-3-[(5-chloropyridin-2-yl)amide]-8-[(3-methoxyphenyl)amide]] |
| 43.3 | 2.79 | 8.37 | -0.66 | – | – | – | – | O=C(Nc1cc(C(F)(F)F)ccc1Cl)N1CCC2(CC1)CC(C(=O)N1CCN(c3ncccc3Cl)CC1)=NO2 [Example 22, 3-[4-(3-chloropyridin-2-yl)piperazine-1-carbonyl]-1-oxa-2,8-diazaspiro[4.5]dec-2-ene-8-carboxylic acid-(2-chloro-5-trifluoromethylphenyl)amide] |
| 45.9 | 0.63 | 27.6 | 0.08 | – | – | – | – | O=C(Nc1ccc(Cl)c(C(F)(F)F)c1)N1CCC2(CC1)CC(C(=O)N1CCN(c3ncccc3Cl)CC1)=NO2 [Example 28, 3-[4-(3-chloropyridin-2-yl)piperazine-1-carbonyl]-1-oxa-2,8-diazaspiro[4.5]dec-2-ene-8-carboxylic acid-(4-chloro-3-trifluoromethylphenyl)amide] |
| 86.2 | 6.21 | 51.9 | -0.13 | – | – | – | – | O=C(Nc1ccc(OC(F)(F)F)cc1)N1CCC2(CC1)CC(C(=O)N1CCN(c3ncccc3Cl)CC1)=NO2 [Example 34, 3-[4-(3-chloropyridin-2-yl)piperazine-1-carbonyl]-1-oxa-2,8-diazaspiro[4.5]dec-2-ene-8-carboxylic acid-(4-trifluoromethoxyphenyl)amide] |
| 98.8 | 18.6 | 63.4 | 13.2 | – | – | – | – | O=C(Nc1ccc(Cl)cc1)N1CCC2(CC1)CC(C(=O)N1CCN(c3ncccc3Cl)CC1)=NO2 [Example 51, 3-[4-(3-chloropyridin-2-yl)piperazine-1-carbonyl]-1-oxa-2,8-diazaspiro[4.5]dec-2-ene-8-carboxylic acid-(4-chlorophenyl)amide] |
| 55.8 | 38.5 | 45.1 | 47.5 | – | – | – | – | COc1ccc(NC(=O)N2CCC3(CC2)CC(C(=O)N2CCN(c4ncccc4Cl)CC2)=NO3)cc1 [Example 52, 3-[4-(3-chloropyridin-2-yl)piperazine-1-carbonyl]-1-oxa-2,8-diazaspiro[4.5]dec-2-ene-8-carboxylic acid-(4-methoxyphenyl)amide] |
| 63.3 | 30.2 | 41.9 | 5.26 | – | – | – | – | CSc1cccc(NC(=O)N2CCC3(CC2)CC(C(=O)N2CCN(c4ncccc4Cl)CC2)=NO3)c1 [Example 56, 3-[4-(3-chloropyridin-2-yl)piperazine-1-carbonyl]-1-oxa-2,8-diazaspiro[4.5]dec-2-ene-8-carboxylic acid-(3-methylsulphanylphenyl)amide] |
